# Source: patent US20110139152A1, “ANTIBIOTIC MICROPARTICLES FOR INHALATION” (Chiesi Farmaceutici S.p.A., priority 2009, published 2011)
# Test: Aerosol performance by laser diffraction (Spraytec with inhalation cell, Monodose inhaler)
# Format: physicochemical
# Conditions: mean
# Description: The aerosol performance of the microparticles of the present invention were evaluated by laser diffraction (Spraytec, Malvern Instruments, Worcestershire, UK) equipped with an inhalation cell attachment. Approximate 30 mg (or 15 mg in later tests) of each powder was loaded into size 3 HPMC capsules (Capsugel, Peapack, N.J., USA). Before the aerosolization, a stainless steel pin punched each end of the capsule allowing powders to be released from the capsule by providing two holes with diameter about 1 mm. Each capsule was aerosolized using a Monodose inhaler device (Miat S.p.A., Milan, Italy) at flow rate of 60 and 90 L/min. All measurements were made on four replicates at room temperature (20° C., 50% RH). Each measurement was performed over 4 s.
# The device retention was calculated as a percentage of powder left both in the capsules and in the inhalers to the total load. The fine particle fraction (FPF) was defined as the amount of drug particle smaller than 5.4 μm as a percentage of the powder emitted from inhaler device.
# It should be noted that all powders were tested after removing large agglomerates by gently passing the powders through a 250 μm sieve.
# To further improve both the emitted dose and FPF of the mechano-fused microparticles with lower contents of MgSt, e.g. between 0.5% and 1%, loose agglomeration was applied by vibrating powders between two sieves of 180 and 710 μm.
# Prior to this sieving process, powders were tumbled to encourage formation of loose agglomerates.
# [1] = 90 L/min, loosely agglomerated drug powders (tumbled, vibrated between sieves of 180 and 710 μm) versus unsieved
structure (smiles),measurement,setting,value
"NC[C@H]1O[C@H](O[C@H]2[C@H](O)[C@@H](O[C@H]3O[C@H](CO)[C@@H](O)[C@H](N)[C@H]3O)[C@H](N)C[C@@H]2N)[C@H](N)C[C@@H]1O [TMC-raw, (2S,3R,4S,5S,6R)-4-amino-2-{[(1S,2S,3R,4S,6R)-4,6-diamino-3-{[(2R,3R,5S,6R)-3-amino-6-(aminomethyl)-5-hydroxyoxan-2-yl]oxy}-2-hydroxycyclohexyl]oxy}-6-(hydroxymethyl)oxane-3,5-diol]","<5.4 μm (%) (fine particle fraction, FPF)","90 L/min air flow, Monodose inhaler, percentage of the powder emitted, powders passed through 250 μm sieve",32.58%
same,"<5.4 μm (%) (fine particle fraction, FPF)","90 L/min air flow, Monodose inhaler, percentage of the powder emitted, powders passed through 250 μm sieve, listed as untreated drug powder",around 30%
same,Emitted dose (%),"90 L/min air flow, Monodose inhaler, size 3 HPMC capsules, powders passed through 250 μm sieve",70.77%
same,"<5.4 μm (%) (fine particle fraction, FPF)",[1],32.58%
same,Emitted dose (%),[1],70.77%
